Read-outs that look alike come from different tables or passages of the source.

What is called IC50 is the concentration needed to halve the response being measured. By ΔTm is commonly meant the change in melting temperature against a reference sample.

Assay [1] concerns the target T1, KIND1 (Homo sapiens, UniProt Q08AE8).
T1 construct: His6 (N, cleaved yes); made in house; host or cells: E. coli BL21 (DE3)
Briefly: FP competition assay with FITC-labeled FSI peptide, KIND1. The assay is classed as binding. The conditions noted are these: 2.44-2500 μM, 1.17 μM KIND1. The procedure:
(§1) The probe was diluted in the buffer assay (25 mM Tris, pH 7.8, 100 mM NaCl, 2 mM DTT) and added to the preplated mixtures of protein/fragment solutions. […] Each experiment was performed in triplicate with four technical replications.
(§2) Establishment of fluorescence polarization assay
(§3) The establishment of the fluorescence polarization assay was done according to protocols […]
(§4) In the first step, the affinity of the fluorescently labelled reporter peptide (FSI-peptide, FITC- […]
(§5) concentrations of KIND1 or KIND2 domains. This yielded dose-response curves that allow us to calculate the Kd of FSI-peptide.
(§6) In the next step, the working concentration of the proteins was calculated. Typically, the concentration should be in a dynamic range (0.5-0.8). For calculations, the following equation f0 = (P − Pmin)/(Pmax − Pmin)
(§7) P – fluorescence polarization in the dynamic range (0.5 -0.8) , Pmin – average minimal fluorescence polarization, Pmax – average maximal fluorescence polarization,
(§8) Taking into account Kd values for the reporter peptide, the working concentration of the proteins were calculated as follows:
(§9) c = Kd(P − Pmin)/(Pmax − P) […]

The target in assay [2] is T1, KIND1. Briefly: Binding to KIND1 (method not given).
Assay [3] deals with T1, KIND1. Briefly: Differential scanning fluorimetry (DSF) thermal shift, KIND1. The assay is classed as binding. The conditions noted are these: 1 mM fragment, 2% DMSO.
In assay [4] the target is T2, KIND2 (Homo sapiens, UniProt Q8WWL2).
T2 sequence (Q8WWL2 18-207): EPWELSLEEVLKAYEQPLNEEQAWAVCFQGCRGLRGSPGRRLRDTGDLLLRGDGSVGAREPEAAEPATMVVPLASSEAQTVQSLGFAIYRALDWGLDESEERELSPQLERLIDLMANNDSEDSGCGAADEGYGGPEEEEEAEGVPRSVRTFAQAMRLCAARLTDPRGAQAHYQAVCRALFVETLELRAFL
Kind of assay: Differential scanning fluorimetry (DSF) thermal shift, KIND2.
Experimental: Fragments were screened as singletons at a final concentration of 1 mM (2% DMSO). […] As hit criteria, we arbitrarily set values of positive and negative thermal shift for +0.8 and −2.0 °C, respectively.
Thermal melting experiments were carried out using a CFX96TM real-time PCR machine (BioRad). Protein thermal unfolding was monitored by the increase in the fluorescence of the SYPRO Orange dye (Sigma-Aldrich). […] The KIND1 or KIND2 were prepared in the storage buffer as 50 μM stock solutions. Ten μL of protein was then mixed with 2 μL of SYPRO Orange 45× and 10 μL of the 4 mM solution of tested compounds or 10 μL of the 8% DMSO solution in the protein storage buffer. The resulting mixture was finally buffered with 18 μL of protein storage buffer. […] Raw data files with temperatures and their corresponding fluorescence values (or first derivative of the fluorescence – dF/dT) were exported to Microsoft Office Excel, where melting temperatures Tm were calculated from the lowest point of the first derivative plot. The visualization of melting curves was performed with GraphPad Prism software. Thermal shift values (ΔTm) were obtained through subtraction of the unfolding temperature of the KIND1 or KIND2 in the presence of 2% (vol/vol) DMSO (TmDMSO) from the unfolding temperatures of the KIND1 or KIND2 in the presence of fragment (Tmfrag) [drawing 2]

Assay [5] addresses T2, KIND2. Kind of assay: FP competition assay with FITC-labeled FSI peptide, KIND2. The conditions noted are these: for KIND2/FSI inhibitory activity in words: FP assay; for IC50: FP competition. The assay is classed as binding. On the set-up: His6 (N, cleaved yes); made in house; host or cells: E. coli BL21 (DE3). The procedure: as §1, §2, §3, §4, §5, §6, §7, §8, §9
The mark [6] stands for this setting: 2.44-2500 μM, 2.49 μM KIND2, read-out: KIND2 IC50.

T1 sequence (Q08AE8 36-236): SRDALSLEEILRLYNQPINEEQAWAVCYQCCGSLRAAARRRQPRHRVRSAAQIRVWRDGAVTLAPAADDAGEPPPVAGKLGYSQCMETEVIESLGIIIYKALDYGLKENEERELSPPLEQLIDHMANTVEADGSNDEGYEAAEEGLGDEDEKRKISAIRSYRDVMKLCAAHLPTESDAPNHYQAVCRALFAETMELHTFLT

The compound `NCCNc1ccnc2cc(Cl)ccc12` [F408, N^1-(7-Chloroquinolin-4-yl)ethane-1,2-diamine] showed an IC50 in assay [1] of over 2500 µM. The “binding to KIND1” value in assay [2] is on record as “did not bind”.

Compound `NCCCNc1ccnc2cc(Cl)ccc12` [F409] gave an IC50 in assay [1] of over 2500 µM.

As for `OCCCNc1ccnc2cc(Cl)ccc12` [F410], the IC50 in assay [1] and in assay [5] (setting [6]) was over 2500 µM throughout. Besides, the ΔTm at 1000 µM in assay [3] was -0.4 °C; in assay [4] (read-out: KIND2 ΔTm) it was -0.5 °C. In assay [5], the “KIND2/FSI inhibitory activity in words” value was “complete loss in activity”.

Regarding `CN(C)CCCNc1ccnc2cc(Cl)ccc12` [F666], the IC50 in assay [1] was over 2500 µM.

In assay [1], `NCCCCNc1ccnc2cc(Cl)ccc12` [F667] yielded an IC50 of over 2500 µM.

For the compound `Nc1ccnc2cc(Cl)ccc12` [F668], the IC50 in assay [1] and in assay [5] (setting [6]) was over 2500 µM in each case. Further, the ΔTm at 1000 µM in assay [3] was -0.4 °C; in assay [4] (read-out: KIND2 ΔTm) it was -1 °C.

Consider `Clc1ccc2c(NCCCN3CCOCC3)ccnc2c1` [F669], for which the IC50 in assay [1] and in assay [5] (setting [6]) was over 2500 µM throughout. For the same compound, the ΔTm at 1000 µM was -0.5 °C in assay [3] and -1 °C in assay [4] (read-out: KIND2 ΔTm). Moreover, the “KIND2/FSI inhibitory activity in words” value in assay [5] was “complete drop in potency”.

For the compound `Clc1ccc2c(N3CCNCC3)ccnc2c1` [F671], the half-maximal inhibitory concentration (IC50) in assay [1] and in assay [5] (setting [6]) was over 2500 µM each time. For the same compound, the ΔTm at 1000 µM in assay [3] is -1 °C; in assay [4] (read-out: KIND2 ΔTm), -2 °C. In addition, in assay [5], the “KIND2/FSI inhibitory activity in words” value was “complete drop in potency”.

Turning to `OCCNc1ccnc2cc(Cl)ccc12` [compound 1, 2-((7-Chloroquinolin-4-yl)amino)ethan-1-ol], the IC50 in assay [1] and in assay [5] (setting [6]) was over 2500 µM each time.

As to `CN(C)CCNc1ccnc2cc(Cl)ccc12` [compound 2, N^1-(7-Chloroquinolin-4-yl)-N^2,N^2-dimethylethane-1,2-diamine], the IC50 in assay [1] and in assay [5] (setting [6]) was over 2500 µM each time. Also, the “KIND2/FSI inhibitory activity in words” value in assay [5] was “loss of potency”.

In the case of `N[C@H]1CCN(c2ccnc3cc(Cl)ccc23)C1` [compound 3, (S)-1-(7-Chloroquinolin-4-yl)pyrrolidin-3-amine], the IC50 in assay [1] and in assay [5] (setting [6]) was over 2500 µM each time.

Turning to `N[C@@H]1CCN(c2ccnc3cc(Cl)ccc23)C1` [compound 4, (R)-1-(7-Chloroquinolin-4-yl)pyrrolidin-3-amine], the IC50 in assay [1] and in assay [5] (setting [6]) was over 2500 µM throughout.

As to `N[C@H]1CCCN(c2ccnc3cc(Cl)ccc23)C1` [compound 5, (3S)-1-(7-Chloroquinolin-4-yl)piperidin-3-amine], the half-maximal inhibitory concentration (IC50) in assay [1] and in assay [5] (setting [6]) was over 2500 µM each time.

As to `N[C@@H]1CCCN(c2ccnc3cc(Cl)ccc23)C1` [compound 6, (3R)-1-(7-Chloroquinolin-4-yl)piperidin-3-amine], the IC50 in assay [1] and in assay [5] (setting [6]) was over 2500 µM in each case.

On to `Clc1ccc2c(N[C@H]3CCCNC3)ccnc2c1` [compound 7, (S)-7-Chloro-N-(piperidin-3-yl)quinolin-4-amine], for which the 50% inhibitory concentration (IC50) in assay [1] and in assay [5] (setting [6]) was over 2500 µM each time.

On to `Clc1ccc2c(N[C@@H]3CCCNC3)ccnc2c1` [compound 8, (R)-7-Chloro-N-(piperidin-3-yl)quinolin-4-amine], for which the IC50 in assay [1] and in assay [5] (setting [6]) was over 2500 µM each time.

`NCCNc1ccnc2cc(C(F)(F)F)ccc12` [compound 9, N^1-(7-(Trifluoromethyl)quinolin-4-yl)ethane-1,2-diamine]: the shift in melting temperature (ΔTm) at 1000 µM in assay [4] (read-out: ΔTm) is -0.4 °C. In addition, in assay [5] (Table 2, KIND2, read-out: IC50), the IC50 was over 2500 µM.

Take `Cc1ccc2c(NCCN)ccnc2c1` [compound 10, N^1-(7-Methylquinolin-4-yl)ethane-1,2-diamine]: the ΔTm at 1000 µM in assay [4] (read-out: ΔTm) came out at 2 °C. In addition, the IC50 in assay [5] (Table 2, KIND2, read-out: IC50) was over 2500 µM.

Consider `NCCNc1ccnc2cc(Br)ccc12` [compound 11, N^1-(7-Bromoquinolin-4-yl)ethane-1,2-diamine], for which the ΔTm at 1000 µM in assay [4] (read-out: ΔTm) came out at 1.2 °C. Also, the IC50 in assay [5] (Table 2, KIND2, read-out: IC50) is over 2500 µM.

As for `NCCNc1ccnc2cc(Oc3ccccc3)ccc12` [compound 15, N^1-(7-Phenoxyquinolin-4-yl)ethane-1,2-diamine], the ΔTm at 1000 µM in assay [4] (read-out: ΔTm) is -0.1 °C. Besides, the IC50 in assay [5] (Table 2, KIND2, read-out: IC50) was over 2500 µM.

Take `NCCNc1ccnc2cc(OCc3ccccc3)ccc12` [compound 16, N^1-[7-(Benzyloxy)quinolin-4-yl]ethane-1,2-diamine]: in assay [4] (read-out: ΔTm), the ΔTm at 1000 µM is 0 °C. Further, the IC50 in assay [5] (Table 2, KIND2, read-out: IC50) is over 2500 µM.

In the case of `NCCNc1ccnc2c(Cl)cccc12` [compound 17, N^1-(8-Chloroquinolin-4-yl)ethane-1,2-diamine], the ΔTm at 1000 µM in assay [4] (read-out: ΔTm) came out at 0.8 °C. Also, the “KIND2/FSI inhibitory activity in words” value in assay [5] is given as “complete loss of activity”. For the same compound, in assay [5] (Table 2, KIND2, read-out: IC50), the IC50 is over 2500 µM.

With `NCCNc1ccnc2c(F)cccc12` [compound 18, N^1-(8-Fluoroquinolin-4-yl)ethane-1,2-diamine], the ΔTm at 1000 µM in assay [4] (read-out: ΔTm) was determined as 0.8 °C. The “KIND2/FSI inhibitory activity in words” value in assay [5] is recorded as “complete loss of activity”. For the same compound, the IC50 in assay [5] (Table 2, KIND2, read-out: IC50) is over 2500 µM.

Source of the values: paper PMC10726347, “Discovery of Inhibitory Fragments That Selectively Target Spire2–FMN2 Interaction” (Journal of Medicinal Chemistry, 2023).
